This is an account of results in patent US8338472B2, “Hexahydrocyclopentyl[F]indazole carboxamides and derivatives thereof as selective glucocorticoid receptor modulators” (Merck Sharp & Dohme Corp., priority 2008, dated 2012).

Structures are written as SMILES. Read-outs that look alike come from different tables or passages of the source.

One experiment has as its target T1, Glucocorticoid Receptor (Homo sapiens, UniProt P04150).
T1 construct: These cells express large amount of the GR and are very responsive to GC treatment; endogenous in cells; host or cells: A549 cells transiently transfected with the MMTV-LUC reporter
T1 sequence (P04150 1-777): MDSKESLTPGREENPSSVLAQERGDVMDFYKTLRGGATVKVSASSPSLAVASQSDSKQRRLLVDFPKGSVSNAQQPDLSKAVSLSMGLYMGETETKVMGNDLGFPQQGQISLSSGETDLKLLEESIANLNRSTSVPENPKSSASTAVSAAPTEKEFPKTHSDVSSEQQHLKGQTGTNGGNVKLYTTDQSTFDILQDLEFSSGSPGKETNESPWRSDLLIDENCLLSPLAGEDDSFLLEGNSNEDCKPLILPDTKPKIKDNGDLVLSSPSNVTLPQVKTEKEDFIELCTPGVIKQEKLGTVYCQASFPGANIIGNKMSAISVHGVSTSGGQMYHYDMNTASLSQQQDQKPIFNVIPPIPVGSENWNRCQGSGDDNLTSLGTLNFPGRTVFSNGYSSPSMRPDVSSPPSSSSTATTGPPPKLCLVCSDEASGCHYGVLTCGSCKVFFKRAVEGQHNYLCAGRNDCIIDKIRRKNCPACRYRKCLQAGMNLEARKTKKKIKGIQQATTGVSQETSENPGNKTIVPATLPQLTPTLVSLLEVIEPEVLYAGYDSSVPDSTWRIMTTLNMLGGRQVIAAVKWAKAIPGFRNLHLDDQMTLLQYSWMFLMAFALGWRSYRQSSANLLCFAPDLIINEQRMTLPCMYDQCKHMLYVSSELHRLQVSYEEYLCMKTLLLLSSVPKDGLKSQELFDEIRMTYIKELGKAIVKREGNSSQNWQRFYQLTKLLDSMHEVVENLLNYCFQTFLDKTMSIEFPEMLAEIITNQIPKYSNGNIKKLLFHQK
Nature of the experiment: Trans-Activation Modulation of Glucocorticoid Receptor (GRAMMER), MMTV-LUC reporter gene in A549 cells. Type of experiment: cell-based. To be noted: Table 1; for Emax: A549, A549 cells, Emax relative to 300 nM dexamethasone, read-out: Transactivation A549 Cells GRAMMER Emax; for EC50: inflection point, A549 cells, read-out: Transactivation A549 Cells GRAMMER IP. The source says: Trans-Activation Modulation of Glucocorticoid Receptor (GRAMMER)
This assay assesses the ability of test compounds to control transcription from the MMTV-LUC reporter gene in lung adenocarcinoma A549 cells or MDA-MB-453 cells, a human breast cancer cell line that naturally expresses the human GR. The assay measures induction of a modified MMTV LTR/promoter linked to the LUC reporter gene.
The routine transient assay consists of plating 7,000-25,000 cells/well of a white, clear-bottom 96-well plate. Alternatively, 384-well plates can be used at a cell concentration of 10,000/well. The media that the cells are plated in is “exponential growth medium” which consists of phenol red-free RPMI1640 containing 10% FBS, 4 mM L-glutamine, 20 mM HEPES, 10 ug/mL human insulin, and 20 ug/mL gentamicin. Incubator conditions are 37° C. and 5% CO2. The transfection is done in batch mode. The cells are trypsinized and counted to the right cell number in the proper amount of fresh media. It is then gently mixed with the FuGene6/DNA mix and plated onto the 96 or 384-well plate, all the wells receive 100 uL or 40 uL, respectively, of medium+lipid/DNA complex then incubated 37° C. overnight. The transfection cocktail consists of serum-free OptiMEM, FuGene6 reagent and DNA. The manufacturer's (Roche Biochemical) protocol for cocktail setup is as follows: The lipid to DNA ratio is approximately 2.5:1 and the incubation time is 20 min at room temperature. Sixteen to 24 hours after transfection, the cells are treated with dexamethasone to a final concentration of 10 nM as well as the compound of interest, such that final DMSO (vehicle) concentration is equal to or less than 1%. Each plate also contains samples that are treated with 10 nM dexamethasone alone, which is used as the 100% activity control. The cells are exposed to the compounds for 24 hours. After 24 hours, the cells are lysed by a Promega cell culture lysis buffer for approximately 30 min and then the luciferase activity in the extracts is assayed in the 96-well format luminometer. In 384-well format, Steady-Glo (Promega) or Steady-Lite (PerkinElmer) can be used by adding an equal volume of reagent to the media present in each well. Activity induced by 10 nM dexamethasone alone is set at 100% activity. Antagonist activity is calculated by determining the decrease in dexamethasone-induced activity in response to compound treatment relative to samples that were treated with dexamethasone alone. […] This transactivation assay can be performed in an agonist and antagonist mode to identify these different activities.
Activity of test compounds is calculated as the Emax relative to the activity obtained with 300 nM dexamethasone. Activity of test compounds is calculated as the Emax relative to the activity obtained with 300 nM DEX. […] The action of compounds is also tested in an antagonist mode (Anti-GRAMMER) in which the cells are treated with medium containing an agonist such as 10 nM DEX and the ability to agents to inhibit the activation by an agonist is measured.
A general note: A reporter such as luciferase makes a cellular process visible.

The next experiment has as its target T2, human GR (Homo sapiens, UniProt P04150).
T2 construct: U937 cells contain an endogenous glucocorticoid receptor (GR); endogenous in cells; host or cells: U937 cells stably transfected with the TNF-alpha promoter/beta-lactamase reporter
T2 sequence (P04150 1-777): T1 sequence (P04150 1-777)
Nature of the experiment: Transrepression Assay (GITAR), TNFα-β-lactamase reporter gene in U937 cells. Type of experiment: cell-based. As to conditions: for GITAR Greater than by GRAMMER % SEP: GITAR Emax minus GRAMMER Emax; for EC50: inflection point, U937 cells, read-out: Transrepression U937 Cells GITAR IP. An excerpt:
Transrepression Assay (GITAR)
This assay assesses the ability of test compounds to control transcription from the TNFα-β-lactamase reporter gene in U937 cells, a human myelomonocytic leukemia cell line that naturally expresses the human GR. The assay measures compound dependent-repression of the TNFa promoter linked to a reporter gene.
The human U937 cells that had been stablely transfected with the TNF-α promoter driving β-lactamase are used for this assay. U937 cells contain an endogenous glucocorticoid receptor (GR). Cells are maintained in RPMI 1640 Growth medium (Gibco Cat#11875-093) containing 25 mM HEPES, 10% FBS, 2 mM L-Glutamine, 1 mM Sodium pyruvate, 25 μg/ml Gentamicin (Gibco Cat#15710-064), 1:1000 2-Mercaptoethanol (Gibco Cat#21985-023) and 0.8 mg/ml G418 (Gibco Cat#10131-027). The density of the cells in the flask needs to be about 1×10^6−3×10^6/ml at the time of harvest. Usually, the cells are split to 1.2˜1.4×10^5/ml (1:10) 3 days prior to the assay. 50,000 cells/well are plated in 96 well black-walled plates the day of assay. Test compounds are added 10 pt/well, and cells are incubated at 37° C. for 30-45 min. For assaying compounds, first dilute 1:10 in DMSO to make 1 mM, then further dilute 1:100 in medium to make 10× stock prior to adding to the cells. Add 50 ng/ml PMA (Sigma, cat# P8139) 10 μL/well to a final concentration 5 ng/ml, and 1 μg/ml LPS (Sigma, cat# L4130) 10 μL/well to a final concentration 100 ng/ml. Incubate cells at 37° C. overnight for ˜18 hr. PMA is stored frozen as 100 μg/ml stock in DMSO. Dilute 1:10 in DMSO for a working stock of 10 μg/ml and store at −20C. For assaying, dilute the […] working stock 1:200 in medium to make a 10× solution (50 ng/ml). Store frozen LPS at 1 mg/ml in PBS, dilute 1:1000 in medium to make 10× (1 μg/ml) for the assay. Add 6× loading buffer (CCF2−AM) 20 μL/well, and incubate at room temperature for 70-90 min. […] The activity repressed by 100 nM dexamethasone alone is set as 100% activity.

Experiment [1] concerns the target T3, glucocorticoid receptor (GR) (Homo sapiens, UniProt P04150).
T3 sequence (P04150 1-777): T1 sequence (P04150 1-777)
Kind of experiment: Ligand binding assay (GR BIND), 3H-dexamethasone displacement in MDA-MB-453 cell lysate. To be noted: GR BIND Ki.
Procedure: Binding Buffer: TEGM (10 mM Tris-HCl, 1 mM EDTA, 10% glycerol, 1 mM beta-mecaptoethanol, 10 mM Sodium Molybdate, pH 7.2)
50% HAP Slurry: Calbiochem Hydroxylapatite, Fast Flow, in 10 mM Tris, pH 8.0 and 1 mM EDTA.
Wash Buffer: 40 mM Tris, pH7.5, 100 mM KCl, 1 mM EDTA and 1 mM EGTA.
Dexmethasone-methyl-^3H, (DEX*); (Amersham cat# TRK645)
Dexamethasone(DEX) (Sigma, cat# D1756):
The cell pellet is washed twice with TEGM (10 mM Tris-HCl, 1 mM EDTA, 10% glycerol, 1 mM beta-mercaptoethanol, 10 mM Sodium Molybdate, pH 7.2). After the final wash, the cells are resuspended in TEGM at a concentration of 10^7 cells/mL. The cell suspension is snap frozen in liquid nitrogen or ethanol/dry ice bath and transferred to −80° C. freezer on dry ice. Before setting up the binding assay, the frozen samples are left on ice-water to just thaw (˜1 hr). Then the samples are centrifuged at 12,500 g to 20,000 g for 30 min at 4° C. The supernatant is used to set-up assay right away. If using 50 μL of supernatant, the test compound can be prepared in 50 μL of the TEGM buffer.
Procedure for Multiple Compound Screening
1×TEGM buffer is prepared, and the isotope-containing assay mixture is prepared in the following order: EtOH (2% final concentration in reaction), ^3H-DEX (Amersham Biosciences) and 1×TEGM. [e.g. For 100 samples, 200 μL (100×2) of EtOH+4.25 μL of 1:10 ^3H-Dex stock+2300 μL (100×23) 1×TEGM]. The compound is serially diluted, e.g., if starting final conc. is 1 μM, and the compound is in 25 μL of solution, for duplicate samples, 75 μL of 4×1 μM solution is made and 3 μL of 100 μM is added to 72 μL of buffer, and 1:5 serial dilution.
25 μL of ^3H-DEX (6 nM) trace and 25 μL compound solution are first mixed together, followed by addition of 50 μL receptor solution. The reaction is gently mixed, spun briefly at about 200 rpm and incubated at 4° C. overnight. 100 μL of 50% HAP slurry is prepared and added to the incubated reaction which is then vortexed and incubated on ice for 5 to 10 minutes. The reaction mixture is vortexed twice more to resuspend HAP while incubating reaction. The samples in 96-well format are then washed in wash buffer using The FilterMate™ Universal Harvester plate washer (Packard). The washing process transfers HAP pellet containing ligand-bound expressed receptor to Unifilter-96 GF/B filter plate (Packard). The HAP pellet on the filter plate is incubated with 50 μL of MICROSCINT (Packard) scintillint for 30 minutes before being counted on the TopCount microscintillation counter (Packard). IC50s are calculated using DEX as a reference.

Where [2] appears, read: U-937, U937 cells, activity repressed by 100 nM dexamethasone = 100%, Table 1, read-out: Transrepression U937 Cells GITAR Emax.
[3] abbreviates: U-937, text statement, 100 nM dexamethasone = 100%, read-out: maximal activity in the transrepression assay (GITAR).

In the case of `CCCN(CCO)C(=O)[C@H]1CCC2=Cc3c(cnn3-c3ccc(F)cc3)C[C@@]21C` [Compound 37, (4αR,5S)-1-(4-fluorophenyl)-N-(2-hydroxyethyl)-4α-methyl-N-propyl-1,4,4α,5,6,7-hexahydrocyclopenta[f]indazole-5-carboxamide], the Emax was 5.7% at Glucocorticoid Receptor, 37% at human GR (setting [2]) and over 5% at human GR (setting [3]). For the same compound, the EC50 at Glucocorticoid Receptor came out at 2550 nM; at human GR (Table 1), 3420 nM. The “GITAR Greater than by GRAMMER % SEP” value at human GR (Table 1) was 31.3%. Further, the affinity in experiment [1] (Table 1), expressed as Ki, was 168 nM.
For `C[C@]12Cc3cnn(-c4ccc(F)cc4)c3C=C1CC[C@@H]2C(=O)N1CCCC1CCc1ccccc1` (stereo partly drawn) [Compound 19, (4αR,5S)-1-(4-fluorophenyl)-4α-methyl-5-{[2-(2-phenylethyl)pyrrolidin-1-yl]carbonyl}-1,4,4α,5,6,7-hexahydrocyclopenta[f]indazole], the figures for the Emax at Glucocorticoid Receptor, on human GR (setting [2]) and on human GR (setting [3]) were 4%, 10.2% and over 5%, respectively. For the same compound, the EC50 on Glucocorticoid Receptor was 1690 nM; at human GR (Table 1), 4260 nM. In addition, on human GR (Table 1), the “GITAR Greater than by GRAMMER % SEP” value was found to be 6.2%. Besides, affinity in experiment [1] (Table 1) was put at a Ki of 4.5 nM.
For `C[C@]12Cc3cnn(-c4ccc(F)cc4)c3C=C1CC[C@@H]2C(=O)N(CCO)CC(O)C(F)(F)F` (stereo partly drawn) [Compound 60, (4αR,5S)-1-(4-fluorophenyl)-N-(2-hydroxyethyl)-4α-methyl-N-(3,3,3-trifluoro-2-hydroxypropyl)-1,4,4α,5,6,7-hexahydrocyclopenta[f]indazole-5-carboxamide], the Emax at Glucocorticoid Receptor was 55.6%; on human GR (setting [2]), 85.4%; on human GR (setting [3]), over 5%. Besides, the EC50 came to 46.3 nM on Glucocorticoid Receptor and 87.1 nM on human GR (Table 1). At human GR (Table 1), the “GITAR Greater than by GRAMMER % SEP” value is on record as 29.8%. Moreover, in experiment [1] (Table 1), the affinity corresponds to a Ki of 12.6 nM.
In the case of `C[C@]12Cc3cnn(-c4ccc(F)cc4)c3C=C1CC[C@@H]2C(=O)N1CCCC(CCc2ccccc2)C1` (stereo partly drawn) [Compound 20, (4αR,5S)-1-(4-fluorophenyl)-4α-methyl-5-{[3-(2-phenylethyl)piperidin-1-yl]carbonyl}-1,4,4α,5,6,7-hexahydrocyclopenta[f]indazole], the Emax was 3.6% on Glucocorticoid Receptor, 11% on human GR (setting [2]) and over 5% on human GR (setting [3]). In addition, the values for the EC50 on Glucocorticoid Receptor and at human GR (Table 1) were 1.3 nM and 693 nM, respectively. Moreover, the “GITAR Greater than by GRAMMER % SEP” value on human GR (Table 1) came out at 7.4%. In addition, affinity in experiment [1] (Table 1) was put at a Ki of 3.1 nM.
In the case of `CC(C)CN(C[C@@H](C)O)C(=O)[C@H]1CCC2=Cc3c(cnn3-c3ccc(F)cc3)C[C@@]21C` [Compound 67, (4αR,5S)-1-(4-fluorophenyl)-N-[(2R)-2-hydroxypropyl]-N-isobutyl-4α-methyl-1,4,4α,5,6,7-hexahydrocyclopenta[f]indazole-5-carboxamide], the results for the Emax at Glucocorticoid Receptor, on human GR (setting [2]) and on human GR (setting [3]) were 67%, 76.9% and over 5%, respectively. Also, the EC50 on Glucocorticoid Receptor was 725 nM; at human GR (Table 1), 558 nM. Also, at human GR (Table 1), the “GITAR Greater than by GRAMMER % SEP” value is 9.9%. Also, the Ki (as a rule, the equilibrium dissociation constant of an inhibitor or competing ligand from its target) in experiment [1] (Table 1) was 5.1 nM.
For the compound `C[C@H](O)CN(CCc1ccccc1F)C(=O)[C@H]1CCC2=Cc3c(cnn3-c3ccc(F)cc3)C[C@@]21C` [Compound 69, (4αR,5S)-1-(4-fluorophenyl)-N-[2-(2-fluorophenyl)ethyl]-N-[(2S)-2-hydroxypropyl]-4α-methyl-1,4,4α,5,6,7-hexahydrocyclopenta[f]indazole-5-carboxamide], the Emax at Glucocorticoid Receptor was 21.9%; on human GR (setting [2]), 64.4%; on human GR (setting [3]) it was over 5%. Further, the EC50 at Glucocorticoid Receptor stood at 680 nM; on human GR (Table 1) it was 714 nM. Further, the “GITAR Greater than by GRAMMER % SEP” value at human GR (Table 1) was found to be 42.6%. Further, the affinity in experiment [1] (Table 1), expressed as Ki, was 5.4 nM.
In experiment [1] (compounds in the art (WO03/086294)), `C[C@]12Cc3cnn(-c4ccc(F)cc4)c3C=C1CC[C@@H]2C(=O)Nc1ccccc1` (single isomer, unassigned) [reference compound] returned a Ki of 2420 nM.
In the case of `C[C@]12Cc3cnn(-c4ccc(F)cc4)c3C=C1CC[C@@H]2C(=O)N1CCCCC1CCc1ccccc1` (stereo partly drawn) [Compound 18, (4αR,5S)-1-(4-fluorophenyl)-4α-methyl-5-{[2-(2-phenylethyl)piperidin-1-yl]carbonyl}-1,4,4α,5,6,7-hexahydrocyclopenta[f]indazole], the Emax at Glucocorticoid Receptor was 3.8%; at human GR (setting [2]), 10.1%; on human GR (setting [3]), over 5%. Also, on human GR (Table 1), the “GITAR Greater than by GRAMMER % SEP” value is reported as 6.3%.
